Where two headings read alike, the source gives them in different places.
Experiments:
[1] = system: HCV replicon (BB7 sequence) in Huh-7-Clone A cells; experiment: HCV replicon assay: ELISA of NS5A protein in replicon-containing cells (Inhibition of Viral RNA Replication); type: cell-based; details: Hepatitis C virus
Procedure, shortened: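 EC50 taken from an 8-point serially diluted dose curve, with NS5A level as read-out: fixed cells probed with primary monoclonal and HRP-conjugated secondary, TMB developed 30 min, OD 650 nm. Compound exposure 72 h in Huh-7-Clone A replicon cells (BB7 sequence).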

[2] = molecular target: T1, HCV NS5B (Hepatitis C virus genotype 1b, UniProt Q9WMX2); experiment: Inhibition of viral RNA-dependent RNA polymerase (RdRp), in vitro biochemical assay; set-up: species or system HCV genotype 1b virus (BB7); details: HCV NS5B RdRp, BB7 genotype 1b; read-out: HCV pol-BB7 IC50
T1 construct: fusion protein, of which the carboxyl terminal 21 amino acids were removed to enhance its solubility; His tag (GSHHHHHH); made in house; host or cells: E. coli
Procedure, shortened: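 IC50 values are the concentrations that halve in vitro RNA synthesis by HCV NS5B polymerase. The enzyme was a C-terminally truncated (Δ21), His-tagged genotype 1b (BB7 consensus) protein purified from E. coli.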

[3] = ranges of EC50 in HCV replicon assay, read-out: Replicon

Compound	EC50 [1, 3]	IC50 [2]	EC50 ([1]; read-out: Replicon (μM))
CNC(=O)c1c(-c2ccc(F)cc2)oc2cc(NC(C)(C)C)c(OC(C)C)cc12 [Example 148, 6-tert-Butylamino-2-(4-fluoro-phenyl)-5-isopropoxy-benzofuran-3-carboxylic acid methylamide]	< 10 µM	≤ 0.5 µM	–
CNC(=O)c1c(-c2ccc(F)cc2)oc2cc(S(N)(=O)=O)c(OC(C)C)cc12 [Example 149, 2-(4-Fluoro-phenyl)-5-isopropoxy-6-sulfamoyl-benzofuran-3-carboxylic acid methylamide]	> 30 µM	5 to 30 µM	–
CNC(=O)c1c(-c2ccc(F)cc2)oc2cc(S(=O)(=O)NC3CCC3)c(OC(C)C)cc12 [Example 150, 6-Cyclobutylsulfamoyl-2-(4-fluoro-phenyl)-5-isopropoxy-benzofuran-3-carboxylic acid methylamide]	< 30 µM	0.5 to 5 µM	–
CNC(=O)c1c(-c2ccc(F)cc2)oc2cc(-c3ccco3)c(OC(C)C)cc12 [Example 151, 2-(4-Fluoro-phenyl)-6-furan-2-yl-5-isopropoxy-benzofuran-3-carboxylic acid methylamide]	< 30 µM	≤ 0.5 µM	–
CNC(=O)c1c(-c2ccc(F)cc2)oc2cc(-c3ccoc3)c(OC(C)C)cc12 [Example 152, 2-(4-Fluoro-phenyl)-6-furan-3-yl-5-isopropoxy-benzofuran-3-carboxylic acid methylamide]	< 10 µM	≤ 0.5 µM	–
CNC(=O)c1c(-c2ccc(F)cc2)oc2cc(-c3cccnc3)c(OC(C)C)cc12 [Example 153, 2-(4-Fluoro-phenyl)-5-isopropoxy-6-pyridin-3-yl-benzofuran-3-carboxylic acid methylamide]	< 10 µM	≤ 0.5 µM	–
CNC(=O)c1c(-c2ccc(F)cc2)oc2cc(S(=O)(=O)N3CCCC3)c(OC(C)C)cc12 [Example 154, 2-(4-Fluoro-phenyl)-5-isopropoxy-6-(pyrrolidine-1-sulfonyl)-benzofuran-3-carboxylic acid methylamide]	< 10 µM	≤ 0.5 µM	–
CNC(=O)c1c(-c2ccc(F)cc2)oc2cc(S(=O)(=O)NC3CC3)c(OC(C)C)cc12 [Example 155, 6-Cyclopropylsulfamoyl-2-(4-fluoro-phenyl)-5-isopropoxy-benzofuran-3-carboxylic acid methylamide]	< 10 µM	≤ 0.5 µM	–
CCS(=O)(=O)Nc1cc2oc(-c3ccc(F)cc3)c(C(=O)NC)c2cc1OC(C)C [Example 156]	–	≤ 0.5 µM	< 10 µM
C=Cc1cc2oc(-c3ccc(F)cc3)c(C(=O)NC)c2cc1OC(C)C [Example 157, 2-(4-Fluoro-phenyl)-5-isopropoxy-6-vinyl-benzofuran-3-carboxylic acid methylamide]	< 10 µM	≤ 0.5 µM	–
CNC(=O)c1c(-c2ccc(F)cc2)oc2cc(OC)c(OC(C)C)cc12 [Example 158, 2-(4-Fluoro-phenyl)-5-isopropoxy-6-methoxy-benzofuran-3-carboxylic acid methylamide]	< 10 µM	≤ 0.5 µM	–
CNC(=O)c1c(-c2ccc(F)cc2)oc2cc(-c3c(C)noc3C)c(OC(C)C)cc12 [Example 159, 6-(3,5-Dimethyl-isoxazol-4-yl)-2-(4-fluoro-phenyl)-5-isopropoxy-benzofuran-3-carboxylic acid methylamide]	< 1 µM	≤ 0.5 µM	–
CNC(=O)c1c(-c2ccc(F)cc2)oc2cc(C=O)c(OC(C)C)cc12 [Example 160, 2-(4-Fluoro-phenyl)-6-formyl-5-isopropoxy-benzofuran-3-carboxylic acid methylamide]	< 30 µM	≤ 0.5 µM	–
CNC(=O)c1c(-c2ccc(F)cc2)oc2cc(-c3ccc(F)nc3)c(OC(C)C)cc12 [Example 161, 2-(4-Fluoro-phenyl)-6-(6-fluoro-pyridin-3-yl)-5-isopropoxy-benzofuran-3-carboxylic acid methylamide]	< 10 µM	≤ 0.5 µM	–

— US7265152B2 (ViroPharma Incorporated, priority 2002, dated 2007)
